{"source": "patent US8709419B2", "about": "“Combination therapy” (Hoffmann-La Roche, Inc., priority 2010, dated 2014)", "key": {"[1]": {"test": "Toxicity in Example 6 study: body weight change, mortality, gross observation"}, "[2]": {"test": "Solubility in water, amorphous versus crystalline form", "assay_type": "physicochemical", "settings": "amorphous form as compared with the crystalline form"}, "[3]": {"test_system": "Human HT-29 Cell Xenografts", "test": "HT-29 xenograft mice, Example 5 (Compound I / cetuximab, treatment day 12-34): tumor growth inhibition, regression, survival", "assay_type": "in vivo", "settings": "for 50% Treatment Days: median survival", "experimental": "(§1) Differences between groups were considered to be significant when the probability value (p) was ≦0.05.\n(§2) For survival assessment, the percent of increased life space (ILS) was calculated as: 100×[(median survival day of treated group−median survival day of control group)/median survival day of control group]. Median survival was determined utilizing Kaplan Meier survival analysis. […] Differences between groups were considered significant when the probability value (p) was ≦0.05.\n(§3) Tumor measurements were taken once or twice per week. All animals were individually followed throughout the experiment."}, "[4]": {"test_system": "Human HT-29 Cell Xenografts", "settings": "for tumor regression (partial or complete): Ex.6: Compound I 25 mg/kg bid, cetuximab 40 mg/kg 2x/wk, irinotecan HCl 40 mg/kg q4d x5 monotherapies, cetuximab + irinotecan combination"}, "[5]": {"test": "Toxicity in Example 5 study: body weight change, mortality, gross observation"}, "[6]": {"test_system": "Human HT-29 Cell Xenografts", "test": "HT-29 xenograft mice, Example 4 (Compound I / erlotinib HCl, treatment day 12-29): tumor growth inhibition, regression, survival", "assay_type": "in vivo", "settings": "for Complete Regression / Partial Regression: animals of 10 per group; for 50% Treatment Days: median survival", "experimental": "as §1, §2, §3"}, "[7]": {"test": "Toxicity in Example 4 study: body weight change, mortality, gross observation", "experimental": "Erlotinib hydrochloride at 100 mg/kg qd was included as a monotherapy arm for comparison."}, "[8]": {"settings": "erlotinib hydrochloride 100 mg/kg qd in combination; Higgins et al., Anticancer Drugs 15:503-12 (2004); cited from earlier work"}, "[9]": {"settings": "Ex.6: Compound I 25 mg/kg bid po"}, "[10]": {"settings": "Ex.5: Compound I 25 mg/kg bid po"}, "[11]": {"settings": "Ex.5: Compound I 75 mg/kg bid po"}, "[12]": {"settings": "Ex.5: Compound I 75 mg/kg bid po, animals of 10 per group"}, "[13]": {"settings": "Ex.6: Compound I 25 mg/kg bid po, animals of 10 per group"}, "[14]": {"settings": "Ex.4: Compound I 75 mg/kg bid po"}, "[15]": {"settings": "Ex.4: erlotinib HCl 67 mg/kg qd po"}, "[16]": {"settings": "Ex.4: erlotinib HCl 100 mg/kg qd po"}, "[17]": {"settings": "Ex.6: irinotecan HCl 40 mg/kg q4d x5 ip"}}, "note": "Counter-ions that a name gives are not always drawn. Like-named read-outs stand apart in the source and are kept apart here.", "data": [{"smiles": "CCCS(=O)(=O)Nc1ccc(F)c(C(=O)c2c[nH]c3ncc(-c4ccc(Cl)cc4)cc23)c1F", "note": "[Compound I, propane-1-sulfonic acid {3-[5-(4-chloro-phenyl)-1H-pyrrolo[2,3-b]pyridine-3-carbonyl]-2,4-difluoro-phenyl}-amide]", "values": [{"measurement": "# animals ≧ 20% BWL", "setting": "[1]; [9]", "result": 0}, {"measurement": "% Change in Body Weight at end of Study Day 32", "setting": "[1]; [9]", "result": 2.9, "unit": "%"}, {"measurement": "Max % Weight Gain", "setting": "[1]; [9]", "result": 3.8, "unit": "%"}, {"measurement": "Max % Weight Loss", "setting": "[1]; [9]", "result": "−0.6", "unit": "%"}, {"measurement": "Mortality", "setting": "[1]; [9]", "result": 0}, {"measurement": "solubility in water", "setting": "[2]", "result": "greater solubility in water"}, {"measurement": "% ILS", "setting": "[3]; [10]", "result": 44, "unit": "%"}, {"measurement": "% Inhibition end of study Day: 34", "setting": "[3]; [10]", "result": 74, "unit": "%"}, {"measurement": "% T/C end of study Day: 34", "setting": "[3]; [10]", "result": 26, "unit": "%"}, {"measurement": "% Tumor Growth Inhibition", "setting": "[3]; [10]", "result": 74, "unit": "%"}, {"measurement": "Mean Tumor Volume (mm^3) End Study", "setting": "[3]; [10]", "result": 615.99, "unit": "mm^3"}, {"measurement": "50% Treatment Days", "setting": "[3]; [10]", "result": 46, "unit": "days"}, {"measurement": "% ILS", "setting": "[3]; [11]", "result": 75, "unit": "%"}, {"measurement": "% Inhibition end of study Day: 34", "setting": "[3]; [11]", "result": 93, "unit": "%"}, {"measurement": "% T/C end of study Day: 34", "setting": "[3]; [11]", "result": 7, "unit": "%"}, {"measurement": "% Tumor Growth Inhibition", "setting": "[3]; [11]", "result": 93, "unit": "%"}, {"measurement": "Mean Tumor Volume (mm^3) End Study", "setting": "[3]; [11]", "result": 275.66, "unit": "mm^3"}, {"measurement": "Complete Regression", "setting": "[3]; [12]", "result": 0}, {"measurement": "Partial Regression", "setting": "[3]; [12]", "result": 0}, {"measurement": "50% Treatment Days", "setting": "[3]; [11]", "result": 56, "unit": "days"}, {"measurement": "Complete Regression", "setting": "[4]; [13]", "result": 0}, {"measurement": "Partial Regression", "setting": "[4]; [13]", "result": 0}, {"measurement": "tumor regression (partial or complete)", "setting": "[4]", "result": "no regressions"}, {"measurement": "# animals ≧ 20% BWL", "setting": "[5]; [10]", "result": 0}, {"measurement": "% Change in Body Weight at end of Study Day 34", "setting": "[5]; [10]", "result": 0.1, "unit": "%"}, {"measurement": "Max % Weight Gain", "setting": "[5]; [10]", "result": 0.3, "unit": "%"}, {"measurement": "Max % Weight Loss", "setting": "[5]; [10]", "result": "−2.2", "unit": "%"}, {"measurement": "Mortality", "setting": "[5]; [10]", "result": 0}, {"measurement": "# animals ≧ 20% BWL", "setting": "[5]; [11]", "result": 0}, {"measurement": "% Change in Body Weight at end of Study Day 34", "setting": "[5]; [11]", "result": "−0.1", "unit": "%"}, {"measurement": "Max % Weight Gain", "setting": "[5]; [11]", "result": 0.7, "unit": "%"}, {"measurement": "Max % Weight Loss", "setting": "[5]; [11]", "result": "−1.4", "unit": "%"}, {"measurement": "Mortality", "setting": "[5]; [11]", "result": 0}, {"measurement": "% ILS", "setting": "[6]; [14]", "result": 100, "unit": "%"}, {"measurement": "% Inhibition end of study Day: 29", "setting": "[6]; [14]", "result": 91, "unit": "%"}, {"measurement": "% T/C end of study Day: 29", "setting": "[6]; [14]", "result": 9, "unit": "%"}, {"measurement": "% Tumor Growth Inhibition", "setting": "[6]; [14]", "result": 91, "unit": "%"}, {"measurement": "Mean Tumor Volume (mm^3) End Study", "setting": "[6]; [14]", "result": 270.24, "unit": "mm^3"}, {"measurement": "Complete Regression", "setting": "[6]; [14]", "result": 0}, {"measurement": "Partial Regression", "setting": "[6]; [14]", "result": 0}, {"measurement": "50% Treatment Days", "setting": "[6]; [14]", "result": 52, "unit": "days"}]}, {"smiles": "C#Cc1cccc(Nc2ncnc3cc(OCCOC)c(OCCOC)cc23)c1", "note": "[Erlotinib HCl, erlotinib hydrochloride]", "values": [{"measurement": "# animals ≧ 20% BWL", "setting": "[7]; [15]", "result": 0}, {"measurement": "% Change in Body Weight at end of Study Day 29", "setting": "[7]; [15]", "result": 3.1, "unit": "%"}, {"measurement": "Max % Weight Gain", "setting": "[7]; [15]", "result": 3.1, "unit": "%"}, {"measurement": "Max % Weight Loss", "setting": "[7]; [15]", "result": 0.1, "unit": "%"}, {"measurement": "Mortality", "setting": "[7]; [15]", "result": 0}, {"measurement": "# animals ≧ 20% BWL", "setting": "[7]; [16]", "result": 0}, {"measurement": "% Change in Body Weight at end of Study Day 29", "setting": "[7]; [16]", "result": 2.9, "unit": "%"}, {"measurement": "Max % Weight Gain", "setting": "[7]; [16]", "result": 3.0, "unit": "%"}, {"measurement": "Max % Weight Loss", "setting": "[7]; [16]", "result": "−1.6", "unit": "%"}, {"measurement": "Mortality", "setting": "[7]; [16]", "result": 0}, {"measurement": "EGFR inhibitor related skin rash", "setting": "[7]; Ex.4: mice treated with erlotinib hydrochloride, self limiting under continuous treatment", "result": "skin rash was common"}, {"measurement": "tolerability in combination (historical)", "setting": "[8]", "result": "not well tolerated"}, {"measurement": "% ILS", "setting": "[6]; [15]", "result": 35, "unit": "%"}, {"measurement": "% Inhibition end of study Day: 29", "setting": "[6]; [15]", "result": 38, "unit": "%"}, {"measurement": "% T/C end of study Day: 29", "setting": "[6]; [15]", "result": 62, "unit": "%"}, {"measurement": "% Tumor Growth Inhibition", "setting": "[6]; [15]", "result": 38, "unit": "%"}, {"measurement": "Mean Tumor Volume (mm^3) End Study", "setting": "[6]; [15]", "result": 1025.10, "unit": "mm^3"}, {"measurement": "Complete Regression", "setting": "[6]; [15]", "result": 0}, {"measurement": "Partial Regression", "setting": "[6]; [15]", "result": 0}, {"measurement": "50% Treatment Days", "setting": "[6]; [15]", "result": 35, "unit": "days"}, {"measurement": "% ILS", "setting": "[6]; [16]", "result": 38, "unit": "%"}, {"measurement": "% Inhibition end of study Day: 29", "setting": "[6]; [16]", "result": 51, "unit": "%"}, {"measurement": "% T/C end of study Day: 29", "setting": "[6]; [16]", "result": 49, "unit": "%"}, {"measurement": "% Tumor Growth Inhibition", "setting": "[6]; [16]", "result": 51, "unit": "%"}, {"measurement": "Mean Tumor Volume (mm^3) End Study", "setting": "[6]; [16]", "result": 838.75, "unit": "mm^3"}, {"measurement": "Complete Regression", "setting": "[6]; [16]", "result": 0}, {"measurement": "Partial Regression", "setting": "[6]; [16]", "result": 0}, {"measurement": "50% Treatment Days", "setting": "[6]; [16]", "result": 36, "unit": "days"}]}, {"smiles": "CCc1c2c(nc3ccc(OC(=O)N4CCC(N5CCCCC5)CC4)cc13)-c1cc3c(c(=O)n1C2)COC(=O)[C@]3(O)CC", "note": "[Irinotecan HCl, irinotecan hydrochloride, reference compound]", "values": [{"measurement": "# animals ≧ 20% BWL", "setting": "[1]; [17]", "result": 0}, {"measurement": "% Change in Body Weight at end of Study Day 32", "setting": "[1]; [17]", "result": 2.7, "unit": "%"}, {"measurement": "Max % Weight Gain", "setting": "[1]; [17]", "result": 2.8, "unit": "%"}, {"measurement": "Max % Weight Loss", "setting": "[1]; [17]", "result": 0.1, "unit": "%"}, {"measurement": "Mortality", "setting": "[1]; [17]", "result": 0}, {"measurement": "tumor regression (partial or complete)", "setting": "[4]", "result": "no regressions"}, {"measurement": "% ILS", "setting": "[4]; [17]", "result": 17, "unit": "%"}]}]}
